Data set [1] has as its system FXN protein in GM15851 cells. The experiment in a line: Immunoblot for FXN protein in GM15851 cells. Format: cell-based, human. The settings on record: 24 hours, 1 μM, Agent 4 0.1, 0.5 or 1 μM. The protocol: (§1) In FIG. 3A, “50” refers to GM15850 cells and in FIG. 3B, “51” refers to GM15851 cells. Cells were treated as in Example 4.
(§2) Total cell extracts from cell lines were used for immunoblot analysis. Antibodies to frataxin (abcam ab110328, 1:250 dilution) or alpha-Tubulin (Cell Signaling Technologies 2144, 1:1000 dilution) were used. Signal was detected by chemiluminescence with HRP-conjugated secondary antibodies (Bio-Rad 172-1011, 1:2000 for anti-mouse frataxin and GE NA934V, 1:2000 for anti-rabbit alpha-Tubulin).
On the technique in general: A western blot detects proteins with antibodies after separation by electrophoresis.

Data set [2] relates to frataxin (FXN) mRNA in GM15850 cells. The experiment in a line: FXN mRNA by RT-PCR in GM15850 FRDA patient cell line. Format: cell-based, human. Conditions: 1 μM, 24 hours, normalized to TBP, relative to 0.1% DMSO. The source says: GM15850 and GM15851 cell lines (Epstein Barr virus transformed human B-lymphocytes) were obtained from the National Institute of General Medical Sciences (NIGMS) Human Genetic Cell Repository at the Coriell Institute for Medical Research, Camden, N.J. The GM15850 cell line was derived from a clinically affected Friedreich's ataxia patient ataxia displaying scoliosis, hypertrophic cardiomyopathy, and slurred speech, and characterized as homozygous for the GAA expansion in the frataxin gene with alleles of approximately 650 and 1030 repeats. The GM15851 cell line was derived from a clinically unaffected individual having two FRDA alleles in the normal range of GAA trinucleotide repeats (from about 6 to about 34 repeats). This clinically unaffected individual is a sibling of the clinically affected patient from which the GM15850 cell line was derived.
Cells were maintained in RPMI 1640 supplemented with 2 mM L-glutamine and 15% fetal bovine serum (FBS) at 37° C. in a humidified atmosphere of 5% CO2. Cell density was maintained between 200,000 cells/mL and 1,000,000 cells/mL. Cell growth and morphology were monitored by phase contrast microscopy and cell viability by trypan blue exclusion. To maintain cell density, cells were passaged by centrifuging at 500g for 3 minutes and resuspending the cells in fresh media. […]

Data set [3] deals with cell cycle. The settings on record: cited from earlier work.
The test system of data set [4] is FXN-GAA-Luc reporter cell line. The data set is described as follows: Luciferase reporter assay, FXN-GAA-Luc line (~310 GAA repeats). Format: cell-based. The settings on record: 24 hours, Agent 4 at 1 or 2 μM, other treatments 2 μM. The protocol:
Treatments are 2 μM unless otherwise indicated. Results are mean±SEM (n=4).
On the technique in general: Reporter assays use an easily measured gene product as a stand-in for the process of interest.

For data set [5], the system named is FXN protein in GM15850 cells. The data set is described as follows: Immunoblot for FXN protein in GM15850 cells. Format: cell-based, human. Conditions: 24 hours, 1 μM, Agent 4 0.1, 0.5 or 1 μM. As to the method: as §1, §2
The subject of data set [6] is MYC transcription in MM cells. Conditions: MM cells bearing IgH rearrangement at the MYC locus; cited from earlier work.

`Cc1sc2c(c1C)C(c1ccc(Cl)cc1)=N[C@@H](CC(=O)NCCOCCOCCOCCOCCOCCOCCC(=O)NCCCN(C)CCCNC(=O)CCNC(=O)c1cc(NC(=O)c3cc(NC(=O)c4nc(NC(=O)c5cc(NC(=O)CCCNC(=O)c6nc(NC(=O)c7cc(NC(=O)c8cc(NC(=O)c9sccc9Cl)cn8C)cn7C)cn6C)cn5C)cn4C)cn3C)cn1C)c1nnc(C)n1-2` [Control Conjugate 2]: the “FXN protein (immunoblot)” value in data set [1] is recorded as “increase in FXN protein”. Further, the “increase in FXN mRNA levels” value in data set [2] is on record as “no increase”.

Take `Cc1sc2c(c1C)C(c1ccc(Cl)cc1)=N[C@@H](CC(=O)OC(C)(C)C)c1nnc(C)n1-2` [JQ1]: the “increase in FXN mRNA levels” value in data set [2] is on record as “no increase”. Moreover, in data set [3], the cell cycle effect entry is on record as “known to cause cell cycle arrest”. In addition, the luciferase activity result in data set [4] is given as “Significant activation was not observed”. In addition, the “FXN protein (immunoblot)” value in data set [5] is given as “Neither polyamide alone (3), nor JQ1, nor the unconjugated treatment induced increased production of FXN protein”. In addition, the MYC transcription entry in data set [6] is “inhibits MYC transcription in a dose- and time-dependent manner”.

The values above are taken from patent US10517877B2, “Compounds and methods for modulating frataxin expression” (Wisconsin Alumni Research Foundation, priority 2016, dated 2019).
